The values that follow come from patent US8604055B2, “Substituted benzylamino quinolines as cholesterol ester-transfer protein inhibitors” (Dr. Reddy's Laboratories Ltd., priority 2004, dated 2013).

Some results are limits rather than exact numbers.

The assay deals with T1, Recombinant CETP enzyme (Homo sapiens, UniProt P11597).
T1 construct: purchased Cardiovascular Targets
T1 sequence (P11597 18-493): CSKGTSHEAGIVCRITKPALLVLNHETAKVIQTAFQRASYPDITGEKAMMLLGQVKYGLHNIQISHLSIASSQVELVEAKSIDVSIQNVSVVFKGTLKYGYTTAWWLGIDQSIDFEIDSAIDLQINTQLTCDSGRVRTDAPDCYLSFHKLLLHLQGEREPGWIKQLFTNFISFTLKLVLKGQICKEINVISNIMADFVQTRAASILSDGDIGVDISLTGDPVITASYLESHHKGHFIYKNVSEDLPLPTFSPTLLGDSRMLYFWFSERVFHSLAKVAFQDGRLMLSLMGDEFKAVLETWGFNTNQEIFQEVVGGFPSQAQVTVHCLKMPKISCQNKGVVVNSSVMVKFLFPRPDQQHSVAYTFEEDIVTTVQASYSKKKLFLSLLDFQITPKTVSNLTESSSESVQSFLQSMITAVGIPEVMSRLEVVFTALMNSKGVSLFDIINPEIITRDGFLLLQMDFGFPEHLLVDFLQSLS
Nature of the assay: In vitro fluorescence-based CETP inhibition assay (BODIPY-CE transfer from donor to acceptor microemulsions). The class given is biochemical. The conditions noted are these: recombinant CETP 0.14 ng/μl; transfer of fluorescent cholesteryl ester monitored over 2 hours; vs DMSO controls. The method, then:
An in vitro fluorescence-based assay to identify CETP inhibitors was developed from modifications of the protocols outlined in Bisgaier et al., J Lipid Res., 34(9): 1625-34 (1993) and Epps et al., Chem Phys Lipids., 77(1): 51-63 (1995). Acceptor and donor lipid microemulsions were prepared according to Bisgaier et al., 1993, except that the buffer was prepared with 0.67 ug/mL human HDL (Calbiochem). Donor microemulsions contained the fluorescent cholesteryl ester analog BODIPY-CE (Molecular Probes), characterized by excitation and emission maxima at 503 nm and 518 nm, respectively. The CETP-mediated transfer of fluorescent cholesteryl ester to acceptor particles was monitored over a 2-hour time period using the FAM filter set (excitation 492 nm, emission 516 nm) in an MX3000P fluorescent plate reader (Stratagene). Recombinant CETP enzyme (Cardiovascular Targets) was used at 0.14 ng/μl, final concentration, to achieve lipid transfer. CETP inhibition by compounds was compared to DMSO controlsand graphed as a percentage of the control CETP activity over 2 hours. The IC50 curves for CETP inhibition were generated from the activity profiles. Active compounds were also tested for CETP inhibition as above, but in the presence of 3% human serum albumin, fraction V (Calbiochem).
The term IC50 denotes the midpoint of a concentration-inhibition curve. Turning to `Cc1cccc2cc(CN(Cc3cc(C(F)(F)F)cc(C(F)(F)F)c3)c3nnn(CCNC(=O)OC(C)(C)C)n3)c(N(CC3CC3)CC3CC3)nc12` [Example 86, (2-{5-[[2-(bis-cyclopropylmethyl-amino)-8-methyl-quinolin-3-ylmethyl]-(3,5-bis-trifluoromethyl-benzyl)-amino]-tetrazol-2-yl}-ethyl)-carbamic acid tert-butyl ester], the IC50 is at most 1 µM.
As for `CCN(CC1CCC1)c1nc2ccccc2cc1CN(Cc1cc(C(F)(F)F)cc(C(F)(F)F)c1)C(=O)OC` [Example 45], the 50% inhibitory concentration (IC50) was at most 5 µM.
For the compound `CCN(CC1CCCC1)c1nc2c(cc1CN(Cc1cc(F)cc(C(F)(F)F)c1)c1nnn(C)n1)c(C)nn2C` [Example 20, cyclopentylmethyl-ethyl-(5-{[(3-fluoro-5-trifluoromethyl-benzyl)-(2-methyl-2H-tetrazol-5-yl)-amino]-methyl}-1,3-dimethyl-1H-pyrazolo[3,4-b]pyridin-6-yl)-amine], the IC50 is at most 1 µM.
As to `CCn1ncc2cc(CN(Cc3cc(C(F)(F)F)cc(C(F)(F)F)c3)c3nnn(C)n3)c(N(CC3CC3)CC3CC3)nc21` [Example 14, (5-{[(3,5-bis-trifluoromethyl-benzyl)-(2-methyl-2H-tetrazol-5-yl)-amino]-methyl}-1-ethyl-1H-pyrazolo[3,4-b]pyridin-6-yl)-bis-cyclopropylmethyl-amine], the IC50 was at most 1 µM.
As to `Cc1nn(C)c2nc(N(CC3CC3)CC3CC3)c(CN(Cc3cc(C(F)(F)F)cc(C(F)(F)F)c3)c3nnn(C)n3)cc12` [Example 2, (5-{[(3,5-bis-trifluoromethyl-benzyl)-(2-methyl-2H-tetrazole-5-yl)-amino]-methyl}-1,3-dimethyl-1H-pyrazolo[3,4-b]pyridin-6-yl)-bis-cyclopropylmethyl-amine], the IC50 is at most 1 µM.
As for `Cc1cccc2cc(CN(Cc3cc(C(F)(F)F)cc(C(F)(F)F)c3)c3ncnc(Cl)n3)c(N(CC3CC3)CC3CC3)nc12` [Example 117, (3-{[(3,5-bis-trifluoromethyl-benzyl)-(4-chloro-[1,3,5]triazin-2-yl)-amino]-methyl}-8-methyl-quinolin-2-yl)-bis-cyclopropylmethyl-amine], the IC50 is at most 1 µM.
The same measure for `CCN(CC1CCCC1)c1nc2ccccc2cc1CN(Cc1cc(C(F)(F)F)cc(C(F)(F)F)c1)C(=O)OC` [Example 35, (3,5-bis-trifluoromethyl-benzyl)-[2-(cyclopentylmethyl-ethyl-amino)-quinolin-3-ylmethyl]-carbamic acid methyl ester]: at most 5 µM; for `CCOC(=O)NC(=S)N(Cc1cc(C(F)(F)F)cc(C(F)(F)F)c1)Cc1cc2ccccc2nc1N(CC)CC1CCCC1` [Example 49, 3-ethoxycarbonyl-1-(3,5-Bis-trifluoromethyl-benzyl)-1-[2-(cyclopentylmethyl-ethyl-amino)-quinolin-3-ylmethyl]-thiourea]: at most 5 µM.
Regarding `CCN(CC1CC1)c1nc2ccccc2cc1CN(Cc1cc(C(F)(F)F)cc(C(F)(F)F)c1)c1nnn(C)n1` [Example 55], the IC50 is at most 1 µM.
For the compound `CCCCN(CC)c1nc2ccccc2cc1CN(Cc1cc(C(F)(F)F)cc(C(F)(F)F)c1)c1nnn(C)n1` [Example 54], the IC50 was at most 1 µM.
For `CCN(CC1CCC1)c1nc2ccccc2cc1CN(Cc1cc(C(F)(F)F)cc(C(F)(F)F)c1)c1nnn(C)n1` [Example 56], the IC50 is at most 1 µM.
`CCN(CC1CCCC1)c1nc2onc(C)c2cc1CN(Cc1cc(C(F)(F)F)cc(C(F)(F)F)c1)c1nnn(C)n1` [Example 33, (5-{[(3,5-bis-trifluoromethyl-benzyl)-(2-methyl-2H-tetrazol-5-yl)-amino]-methyl}-3-methyl-isoxazolo[5,4-b]pyridine-6-yl)-cyclopentylmethyl-ethyl-amine]: the 50% inhibitory concentration (IC50) was at most 1 µM.
As for `Cc1nn(C)c2nc(N(CC3CC3)CC3CC3)c(CN(Cc3cc(Cl)cc(Cl)c3)c3nnn(C)n3)cc12` [Example 21, bis-cyclopropylmethyl-(5-{[(3,5-dichlorobenzyl)-(2-methyl-2H-tetrazol-5-yl)-amino]-methyl}-1,3-dimethyl-1H-pyrazolo[3,4-b]pyridin-6-yl)-amine], the IC50 is at most 1 µM.
